Assay results reported in US12077508B2, “Inhibitors of the Notch transcriptional activation complex kinase (“NACK”) and methods for use of the same” (UNIVERSITY OF MIAMI, priority 2018, dated 2024).
Entries after “also recorded” stand apart in the source; their conditions may differ.

Columns and labels:
[1] = Maximum tolerated dose in efficacy studies; conditions: mouse, in vivo, ip, 25 mg/kg; 4-week efficacy studies; intraperitoneal
OE33 cells [2] = assay: Senescence-associated β-galactosidase assay; format: cell-based, human; conditions: treatment for 3 weeks, FIG. 9B
Description: After prolonged Z271-0326 or DAPT treatment for 3 weeks of live cells of OE33, cells were measured by senescence-associated β-galaotosidase activity according to the manufacture recommended protocol (Senescence β-Galaotosidase Staining Kit, Cell Signaling, #9860).

HES1 promoter = assay: Chromatin immunoprecipitation (ChIP) at the HES1 promoter in OE33; format: cell-based, human; conditions: FIG. 8C
Description: Notch/NACK-dependent cells were treated with either DAPT as a positive control, DMSO (vehicle) as a negative control, or compounds for screening for 24 hours. After treatment, cells were cross-linked and sonicated to yield chromatin fragments of approximately 500 bp, as previously described (See Weaver et al., Cancer Research 74, 4741-4751 (2014)). Lysates were immunoprecipitated with either α-Notch1 (Bethyl Laboratories, Montgomery, TX; A301-894A), α-Maml1 (Cell Signaling, 12166s), α-NACK (Bethyl Laboratories, A302-675A), or α-PoIII pSer5 (Abcam, ab5131) antibodies. DNA immunoprecipitates were cleaned using the PCR purification Kit (Qiagen). DNA were detected by Syber green qPCR using HES1 specific oligonucleotide primers (forward: 5′CGTGTCTCCTCCTCCCATT3′ (SEQ ID NO: 2); reverse: 5′GGGGGATTCCGCTGTTAT3′ (SEQ ID NO:3)).

[3] = system: NACK binding to the Notch transcription complex; assay: CSL-DNA affinity precipitation (CSL-DAP) assay; format: cell-based, mouse; conditions: Y999F NACK and Q1024E NACK mutants (mouse NACK); FIG. 10D
Description: To determine the specificity of hit-to-lead compounds targeting NACK activity, it was evaluated whether iNACK can block NACK binding to the Notch complex by conducting CSL-DNA affinity precipitation (CSL-DAP) assay. […] In the CSL-DAP assay, 293T cells were co-transfected with N1^ICD, Maml1 and NACK. Transfections were performed using LipoJet transfection reagent (SL100468, SignaGen Laboratories) according to the manufacturer recommended protocol. After two days of transfection, cells were treated with compounds for 2 hours prior collecting the cell lysate. Cell lysates were incubated with DNA streptavidin beads. Proteins that bound to the beads were analyzed by Western blot.
Western blot was performed as described previously (See Weaver et al., Cancer Research 74, 4741-4751 (2014)). Primary antibodies were α-NACK (1:1,000; against aa209-287 of NACK and affinity purified), α-CSL (1:1,000; generated against full-length CSL and affinity purified), α-Maml1 (1:5,000; Cell Signaling Technology), α-cleaved-Notch1 (1:1,000; Cell Signaling Technology).

HC11 cells = assay: Colony formation assay in HC11 cells; format: cell-based, mouse; conditions: Notch/NACK independent cell line; FIG. 5B
Description: A cell based colony formation assay was used in these experiments. Normal mouse mammary epithelia HC11 cells have little or no endogenous NACK expression, and NACK knockdown had no effect on the growth of HC11 cells (FIG. 5A, lower panel). […] Knockdown of NACK was confirmed by western blot and qPCR (FIGS. 1D and 1E). […] Therefore, compounds that affect OE33 colony formation but not HC11 were desired. In order to screen the compounds, cells were treated with test compounds every other day.
Colony formation assay was utilized to determine the effect of small molecule inhibitors on cell proliferation. In general, different cell lines (NACK dependent or independent) will be seeded in 6-well plates at a density of 2000 cells per well and allowed to attach overnight. Inhibitor treatment commenced 24 hours post seeding, and the media containing inhibitor was changed every 48 hours thereafter. After 168 hours, colonies were be stained with Crystal Violet (Millipore) and counted.

OE33 cells [4] = assay: Cell apoptosis assay (Annexin V/PI flow cytometry); format: cell-based, human; conditions: day 7 of treatment, FIG. 9A
Description: To investigate how Z271-0326 inhibits cell growth in EAC cell lines, the effect of Z271-0326 treatment was evaluated on apoptosis. OE33 was treated either with the GSI DAPT or Z271-0326 every other day, and their effects on apoptosis were analyzed. On day 7 of treatment, cell apoptosis was analyzed using FITC Annexin V/Dead Cell Apoptosis Kit with FIFC annexin V and PI for flow cytometry (Invitrogen, V13242).

CCN(CC)C(=O)c1cnn2ccc(C3CCN(S(=O)(=O)c4ccc(NC(C)=O)cc4)CC3)cc12 [Compound Z271-0326, 5-(1-((4-acetamidophenyl)sulfonyl)piperidin-4-yl)-N,N-diethylpyrazolo[1,5-a]pyridine-3-carboxamide]
MTD at 4 weeks [1]: 25 mg/kg | cellular senescence (senescence-associated β-galactosidase activity) (OE33 cells [2]): resulted in the induction of cellular senescence | binding of N1ICD and NACK to the HES1 promoter (HES1 promoter; 24 hours): abrogated the binding of N1ICD and NACK to the HES1 promoter | Pol II pSer5 initiation complex formation at the HES1 promoter (HES1 promoter): decreases the RNA polymerase initiation complex (Pol II pSer5) formation at the HES1 promoter | recruitment of NACK to the Notch complex [3]: insensitive to inhibition | HC11 colony formation / viability (HC11 cells): but not HC11 cell; also recorded: insensitive | increase in the percent of cells undergoing apoptosis compared to the control (OE33 cells [4]): threefold
